This passage reports GI50 and TGI results from PubChem BioAssay (NCI).

Among the test systems are ACHN renal; CCRF-CEM leukemia; HCT-116 colon; HL-60(TB) leukemia; HOP-92 NSCLC; MCF7 breast; NCI-H460 lung; SK-MEL-5 melanoma; SN12C renal; UACC-257 melanoma.
Common to all, as to assay: DTP human tumour cell line panel, 48 h

Structures are written as SMILES. Several values for one entry are separate records, joined by “and”; a condition that tells them apart may be missing. Identical values can stand only once.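 Results reflect a 48-hour exposure of cells in 96-well plates to compound at five concentrations. GI50 marks 50% less growth. TGI denotes the concentration required for complete inhibition of growth.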

Regarding `COc1cc2nccc(Oc3ccc(NC(=O)Nc4cc(C)on4)c(Cl)c3)c2cc1OC`, the GI50 (commonly the concentration giving 50% growth inhibition) was 3.28 µM and 3.72 µM in the assay with ACHN renal; 3.1 µM in the assay with CCRF-CEM leukemia; 2.29 µM and 2.91 µM in the assay with HCT-116 colon; 3.35 µM and 3.2 µM with HL-60(TB) leukemia; 2.58 µM and 0.911 µM in the assay with HOP-92 NSCLC; 3.35 µM with MCF7 breast. The GI50 in the assay on NCI-H460 lung was 3.41 µM and 4.31 µM; in the assay on SK-MEL-5 melanoma, 2.04 µM and 2.81 µM; in the assay with SN12C renal, 2.13 µM and 2.56 µM; with UACC-257 melanoma, 3.73 µM and 5.54 µM. Also, the TGI (usually the concentration at which net growth stops) is 22.3 µM and > 10 µM in the assay with ACHN renal; > 100 µM in the assay with CCRF-CEM leukemia; 5.48 µM and > 10 µM in the assay on HCT-116 colon; 11.8 µM and > 10 µM in the assay on HL-60(TB) leukemia; 6.27 µM and 3.44 µM with HOP-92 NSCLC; 56.2 µM and > 10 µM in the assay on MCF7 breast. Also, the TGI was > 70.4 µM in the assay with NCI-H460 lung; 5.69 µM and > 10 µM with SK-MEL-5 melanoma; > 100 µM with SN12C renal; 33.9 µM and > 10 µM with UACC-257 melanoma.
Consider `Oc1c(Cl)cc(Cl)cc1C(c1cc(Cl)cc(Cl)c1O)C(Cl)(Cl)Cl`, for which the GI50 in the assay on ACHN renal is 2.82 µM; in the assay on CCRF-CEM leukemia, 2.86 µM; in the assay with HCT-116 colon, 1.32 µM; in the assay with HL-60(TB) leukemia, 3.25 µM; in the assay on HOP-92 NSCLC, 1.52 µM; in the assay on MCF7 breast, 2.7 µM. The GI50 with NCI-H460 lung is 2.01 µM; in the assay with SK-MEL-5 melanoma it was 1.21 µM; with SN12C renal it was 1.78 µM; in the assay with UACC-257 melanoma it was 3.33 µM. The TGI was 12 µM in the assay with ACHN renal; 24.8 µM in the assay with CCRF-CEM leukemia; 3.67 µM in the assay with HCT-116 colon; 10.3 µM with HL-60(TB) leukemia; 5.94 µM in the assay with HOP-92 NSCLC; 14.2 µM in the assay on MCF7 breast. In addition, the TGI with NCI-H460 lung came out at 9.38 µM; in the assay with SK-MEL-5 melanoma it was 2.73 µM; in the assay with SN12C renal, 13.7 µM; in the assay with UACC-257 melanoma it was 9.18 µM.
With `CC(C(N)C(=O)NC(C(=O)O)C1OC(n2ccc(=O)[nH]c2=O)C(O)C1O)C(O)c1ccc(O)cn1` (stereo not given), the TGI in the assay with ACHN renal, in the assay on CCRF-CEM leukemia, in the assay on HCT-116 colon, in the assay with HL-60(TB) leukemia, with HOP-92 NSCLC and in the assay with MCF7 breast was > 100 µM in each case. Further, the TGI with NCI-H460 lung, in the assay with SK-MEL-5 melanoma, in the assay on SN12C renal and with UACC-257 melanoma was > 100 µM in each case.
With `O=C1OC(=O)C2CCCC3CCCC1C32` (stereo not given), the TGI in the assay on ACHN renal, in the assay on CCRF-CEM leukemia, in the assay with HCT-116 colon, with HL-60(TB) leukemia, with HOP-92 NSCLC and in the assay on MCF7 breast was > 100 µM each time. Further, the TGI in the assay on NCI-H460 lung, with SK-MEL-5 melanoma, in the assay with SN12C renal and with UACC-257 melanoma was > 100 µM throughout.
As to `NS(=O)(=O)c1ccc(N(/C=C/C(=O)C(F)(F)F)Cc2ccc(Cl)cc2)cc1`, the GI50 with ACHN renal was 31.7 µM; in the assay on CCRF-CEM leukemia, 16 µM; with HCT-116 colon, 14.7 µM; in the assay with HL-60(TB) leukemia, 39 µM; in the assay on HOP-92 NSCLC, 16.1 µM; in the assay on MCF7 breast, 93.9 µM. Further, the GI50 with NCI-H460 lung was 67.9 µM; with SK-MEL-5 melanoma it was 19.2 µM; with SN12C renal, 21.1 µM; in the assay on UACC-257 melanoma it was 24.1 µM. Moreover, the TGI in the assay with ACHN renal was 78.1 µM; with CCRF-CEM leukemia it was 40.3 µM; with HCT-116 colon, 28.1 µM; with HL-60(TB) leukemia, 78.3 µM; in the assay on HOP-92 NSCLC it was 40.9 µM; with MCF7 breast, > 100 µM. For the same compound, the TGI was > 100 µM in the assay on NCI-H460 lung, 38 µM in the assay with SK-MEL-5 melanoma, 56.2 µM with SN12C renal and 52.8 µM in the assay with UACC-257 melanoma.
Consider `Cc1cc(-c2ccccn2)cc(C)c1/C=C/c1cncc(-c2nn[nH]n2)c1`, for which the GI50 in the assay with ACHN renal is > 25 µM; in the assay with CCRF-CEM leukemia, > 25 µM; in the assay with HCT-116 colon, > 25 µM; in the assay with HL-60(TB) leukemia it was > 25 µM; in the assay with HOP-92 NSCLC it was > 18.4 µM; with MCF7 breast, > 25 µM. The GI50 with NCI-H460 lung, in the assay with SK-MEL-5 melanoma, in the assay on SN12C renal and in the assay on UACC-257 melanoma was > 25 µM in each case. Further, the TGI with ACHN renal, in the assay with CCRF-CEM leukemia, with HCT-116 colon, in the assay with HL-60(TB) leukemia, in the assay with HOP-92 NSCLC and with MCF7 breast was > 25 µM each time. Moreover, the TGI in the assay on NCI-H460 lung, in the assay on SK-MEL-5 melanoma, with SN12C renal and in the assay on UACC-257 melanoma was > 25 µM throughout.
For the compound `CCCCCCCCCCCCCCCCCCOCC(CCP(=O)(CP(=O)(O)O)Oc1ccccc1)OCCCCCCCCCCCCCCCCCC` (stereo not given), the TGI with ACHN renal, with CCRF-CEM leukemia, in the assay on HCT-116 colon, in the assay with HL-60(TB) leukemia, in the assay on HOP-92 NSCLC and in the assay with MCF7 breast was > 100 µM in each case. Also, the TGI with NCI-H460 lung, with SK-MEL-5 melanoma, in the assay on SN12C renal and in the assay with UACC-257 melanoma was > 100 µM throughout.
Turning to `O=C1/C(=C/c2ccc(Cl)cc2)CCC/C1=C\c1ccc(Cl)cc1`, the GI50 is 6.83 µM with ACHN renal; 3.64 µM with CCRF-CEM leukemia; 1.65 µM with HCT-116 colon; 3.56 µM with HL-60(TB) leukemia; > 100 µM with HOP-92 NSCLC; 2.93 µM with MCF7 breast. The GI50 in the assay on NCI-H460 lung was 6.93 µM; in the assay with SK-MEL-5 melanoma it was 4.26 µM; with SN12C renal, 6.06 µM; in the assay with UACC-257 melanoma, 4.17 µM. The TGI was > 100 µM in the assay on ACHN renal; > 100 µM with CCRF-CEM leukemia; 3.02 µM in the assay on HCT-116 colon; > 100 µM in the assay on HL-60(TB) leukemia; > 100 µM with HOP-92 NSCLC; > 100 µM in the assay with MCF7 breast. Also, the TGI in the assay on NCI-H460 lung, with SK-MEL-5 melanoma, with SN12C renal and in the assay with UACC-257 melanoma was > 100 µM in each case.
